{"source": "ChEMBL document CHEMBL2010722", "about": "“Structure-activity relationship study of beta-carboline derivatives as haspin kinase inhibitors” (Bioorg Med Chem Lett, 2012)", "key": {"[1]": {"biological_target": "Activated CDC42 kinase 1 (Homo sapiens) (UniProt Q07912)", "assay": "Inhibition of TNK2 at 10 uM"}, "[2]": {"biological_target": "Tyrosine-protein kinase receptor UFO (Homo sapiens) (UniProt P30530)", "assay": "Inhibition of AXL at 10 uM"}, "[3]": {"biological_target": "Cytoplasmic tyrosine-protein kinase BMX (Homo sapiens) (UniProt P51813)", "assay": "Inhibition of BMX at 10 uM"}, "[4]": {"biological_target": "Tyrosine-protein kinase BTK (Homo sapiens) (UniProt Q06187)", "assay": "Inhibition of BTK at 10 uM"}, "[5]": {"biological_target": "Epithelial discoidin domain-containing receptor 1 (Homo sapiens) (UniProt Q08345)", "sequence (Q08345 whole entry, the tested form may be a part)": "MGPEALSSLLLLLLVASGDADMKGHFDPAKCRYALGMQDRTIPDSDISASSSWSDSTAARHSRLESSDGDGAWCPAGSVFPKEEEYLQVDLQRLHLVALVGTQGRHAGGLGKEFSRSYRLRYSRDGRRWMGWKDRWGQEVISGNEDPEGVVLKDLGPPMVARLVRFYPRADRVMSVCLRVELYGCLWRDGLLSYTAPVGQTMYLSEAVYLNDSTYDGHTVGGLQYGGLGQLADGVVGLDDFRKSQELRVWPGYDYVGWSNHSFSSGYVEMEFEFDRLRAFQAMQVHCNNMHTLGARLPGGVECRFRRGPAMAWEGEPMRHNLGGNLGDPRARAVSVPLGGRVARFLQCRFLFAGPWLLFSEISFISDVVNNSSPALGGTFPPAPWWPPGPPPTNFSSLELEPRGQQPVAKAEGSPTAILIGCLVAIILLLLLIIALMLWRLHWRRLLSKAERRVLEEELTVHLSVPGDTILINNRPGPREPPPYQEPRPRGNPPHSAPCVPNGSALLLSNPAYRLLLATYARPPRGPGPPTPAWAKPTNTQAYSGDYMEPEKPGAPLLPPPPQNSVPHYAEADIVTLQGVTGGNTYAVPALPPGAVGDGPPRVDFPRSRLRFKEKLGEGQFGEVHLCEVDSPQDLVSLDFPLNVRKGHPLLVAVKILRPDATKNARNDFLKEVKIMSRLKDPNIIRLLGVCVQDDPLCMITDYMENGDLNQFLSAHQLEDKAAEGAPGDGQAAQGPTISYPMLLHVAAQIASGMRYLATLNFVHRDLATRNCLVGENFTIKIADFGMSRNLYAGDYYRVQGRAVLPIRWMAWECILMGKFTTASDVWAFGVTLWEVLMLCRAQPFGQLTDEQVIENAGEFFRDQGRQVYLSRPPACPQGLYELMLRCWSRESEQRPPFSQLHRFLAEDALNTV", "assay": "Inhibition of DDR1 at 10 uM"}, "[6]": {"tested_on": "Epidermal growth factor receptor (Homo sapiens), P00533 [L861Q]", "assay": "Inhibition of EGFR L861Q mutant at 10 uM", "type": "protein assay"}, "[7]": {"biological_target": "Ephrin type-A receptor 3 (Homo sapiens) (UniProt P29320)", "sequence (P29320 whole entry)": "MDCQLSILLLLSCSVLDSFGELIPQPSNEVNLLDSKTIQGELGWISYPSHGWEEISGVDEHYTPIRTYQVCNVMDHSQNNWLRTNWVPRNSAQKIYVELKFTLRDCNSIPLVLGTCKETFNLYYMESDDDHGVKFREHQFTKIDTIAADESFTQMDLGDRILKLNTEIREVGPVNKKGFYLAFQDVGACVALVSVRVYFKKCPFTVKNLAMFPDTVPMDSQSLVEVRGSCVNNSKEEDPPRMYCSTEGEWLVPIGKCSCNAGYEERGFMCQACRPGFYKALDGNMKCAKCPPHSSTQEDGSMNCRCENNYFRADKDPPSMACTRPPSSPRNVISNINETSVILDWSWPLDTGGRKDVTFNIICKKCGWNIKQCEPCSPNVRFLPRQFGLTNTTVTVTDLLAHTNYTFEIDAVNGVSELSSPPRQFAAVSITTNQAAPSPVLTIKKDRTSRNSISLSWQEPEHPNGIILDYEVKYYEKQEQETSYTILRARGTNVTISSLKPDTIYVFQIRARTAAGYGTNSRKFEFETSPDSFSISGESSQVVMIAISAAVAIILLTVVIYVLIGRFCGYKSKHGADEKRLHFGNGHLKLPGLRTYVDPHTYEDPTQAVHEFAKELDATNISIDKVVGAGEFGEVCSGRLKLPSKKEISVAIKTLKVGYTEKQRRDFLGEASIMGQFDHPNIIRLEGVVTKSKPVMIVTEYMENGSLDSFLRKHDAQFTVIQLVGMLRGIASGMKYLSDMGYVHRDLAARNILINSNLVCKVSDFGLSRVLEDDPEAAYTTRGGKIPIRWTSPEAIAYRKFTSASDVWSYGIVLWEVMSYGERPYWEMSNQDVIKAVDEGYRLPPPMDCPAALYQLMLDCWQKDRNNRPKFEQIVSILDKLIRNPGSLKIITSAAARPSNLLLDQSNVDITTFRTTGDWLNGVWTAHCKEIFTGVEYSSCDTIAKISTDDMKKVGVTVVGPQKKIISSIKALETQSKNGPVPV", "assay": "Inhibition of EPHA3 at 10 uM"}, "[8]": {"biological_target": "Focal adhesion kinase 1 (Homo sapiens) (UniProt Q05397)", "assay": "Inhibition of FAK at 10 uM"}, "[9]": {"biological_target": "Tyrosine-protein kinase Fgr (Homo sapiens) (UniProt P09769)", "assay": "Inhibition of FGR at 10 uM"}, "[10]": {"biological_target": "Macrophage colony-stimulating factor 1 receptor (Homo sapiens) (UniProt P07333)", "assay": "Inhibition of FMS at 10 uM"}, "[11]": {"biological_target": "Tyrosine-protein kinase JAK1 (Homo sapiens) (UniProt P23458)", "assay": "Inhibition of JAK1 at 10 uM"}, "[12]": {"tested_on": "Platelet-derived growth factor receptor alpha (Homo sapiens), P16234 [T674I]", "assay": "Inhibition of PDGFRa T674I mutant at 10 uM"}, "[13]": {"biological_target": "Tyrosine-protein kinase Tec (Homo sapiens) (UniProt P42680)", "assay": "Inhibition of TEC at 10 uM"}, "[14]": {"biological_target": "Angiopoietin-1 receptor (Homo sapiens) (UniProt Q02763)", "assay": "Inhibition of TIE2 at 10 uM"}, "[15]": {"biological_target": "AMP-activated protein kinase, AMPK (Homo sapiens) (UniProt P54646+O43741+P54619+Q9UGJ0+Q9Y478+Q13131+Q9UGI9)", "assay": "Inhibition of AMPKalpha2/beta1/gamma1 at 10 uM", "type": "protein-complex assay"}, "[16]": {"biological_target": "Aurora kinase A/Targeting protein for Xklp2 (Homo sapiens) (UniProt O14965+Q9ULW0)", "assay": "Inhibition of AurA-TPX2 at 10 uM", "type": "protein-complex assay"}, "[17]": {"biological_target": "Bone morphogenetic protein receptor type-1A (Homo sapiens) (UniProt P36894)", "assay": "Inhibition of BMPR1A at 10 uM"}, "[18]": {"biological_target": "Cyclin-dependent kinase 7/ cyclin H (Homo sapiens) (UniProt P51946+P50613)", "assay": "Inhibition of CDK7-CycH-MAT1 at 10 uM", "type": "protein-complex assay"}, "[19]": {"biological_target": "Serine/threonine-protein kinase Chk2 (Homo sapiens) (UniProt O96017)", "assay": "Inhibition of CHK2 at 10 uM"}, "[20]": {"biological_target": "Casein kinase I isoform alpha (Homo sapiens) (UniProt P48729)", "sequence (P48729 2-337 limits assumed)": "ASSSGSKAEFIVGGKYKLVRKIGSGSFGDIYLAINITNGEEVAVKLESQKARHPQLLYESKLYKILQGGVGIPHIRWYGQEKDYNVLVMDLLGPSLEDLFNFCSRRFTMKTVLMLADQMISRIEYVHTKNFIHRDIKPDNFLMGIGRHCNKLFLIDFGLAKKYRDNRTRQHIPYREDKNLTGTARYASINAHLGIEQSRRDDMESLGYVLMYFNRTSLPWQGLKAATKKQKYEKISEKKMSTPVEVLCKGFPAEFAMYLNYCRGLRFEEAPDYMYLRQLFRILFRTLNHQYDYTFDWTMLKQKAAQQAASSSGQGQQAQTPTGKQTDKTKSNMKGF", "assay": "Inhibition of CK1a at 10 uM"}, "[21]": {"biological_target": "Mitogen-activated protein kinase kinase kinase kinase 4 (Homo sapiens) (UniProt O95819)", "assay": "Inhibition of HGK at 10 uM"}, "[22]": {"biological_target": "Homeodomain-interacting protein kinase 2 (Homo sapiens) (UniProt Q9H2X6)", "sequence (Q9H2X6 whole entry, looked up)": "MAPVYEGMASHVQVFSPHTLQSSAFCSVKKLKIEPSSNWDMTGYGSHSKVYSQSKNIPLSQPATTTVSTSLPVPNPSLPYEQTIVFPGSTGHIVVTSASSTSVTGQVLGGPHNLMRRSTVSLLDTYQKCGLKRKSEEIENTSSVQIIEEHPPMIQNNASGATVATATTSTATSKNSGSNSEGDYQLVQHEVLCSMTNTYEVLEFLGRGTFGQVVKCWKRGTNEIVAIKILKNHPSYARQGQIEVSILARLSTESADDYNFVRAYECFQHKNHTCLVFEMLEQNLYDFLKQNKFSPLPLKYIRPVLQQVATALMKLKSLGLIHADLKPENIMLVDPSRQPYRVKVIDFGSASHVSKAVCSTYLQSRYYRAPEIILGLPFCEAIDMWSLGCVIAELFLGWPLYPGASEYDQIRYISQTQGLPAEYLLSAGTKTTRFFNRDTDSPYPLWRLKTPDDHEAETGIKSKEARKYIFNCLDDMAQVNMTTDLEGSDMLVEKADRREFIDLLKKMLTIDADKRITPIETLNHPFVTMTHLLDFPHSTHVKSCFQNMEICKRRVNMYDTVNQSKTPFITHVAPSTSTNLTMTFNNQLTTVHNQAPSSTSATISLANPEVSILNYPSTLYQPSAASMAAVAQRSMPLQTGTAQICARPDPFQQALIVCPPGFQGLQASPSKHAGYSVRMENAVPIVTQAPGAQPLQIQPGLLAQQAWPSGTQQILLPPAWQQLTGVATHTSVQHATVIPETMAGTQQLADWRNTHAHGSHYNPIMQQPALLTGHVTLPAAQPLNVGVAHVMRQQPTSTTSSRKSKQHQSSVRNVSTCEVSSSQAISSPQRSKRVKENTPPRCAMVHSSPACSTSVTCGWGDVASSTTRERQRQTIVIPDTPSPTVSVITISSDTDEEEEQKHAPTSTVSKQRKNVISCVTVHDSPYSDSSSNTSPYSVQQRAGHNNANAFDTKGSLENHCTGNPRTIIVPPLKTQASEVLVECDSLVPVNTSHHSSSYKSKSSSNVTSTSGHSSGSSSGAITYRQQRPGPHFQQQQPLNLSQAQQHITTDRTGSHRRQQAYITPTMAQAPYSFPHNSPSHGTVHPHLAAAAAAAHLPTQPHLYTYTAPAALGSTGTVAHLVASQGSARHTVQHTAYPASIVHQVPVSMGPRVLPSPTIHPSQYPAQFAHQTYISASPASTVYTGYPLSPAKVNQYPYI", "assay": "Inhibition of HIPK2 at 10 uM"}, "[23]": {"biological_target": "Interleukin-1 receptor-associated kinase 1 (Homo sapiens) (UniProt P51617)", "sequence (P51617 whole entry, looked up)": "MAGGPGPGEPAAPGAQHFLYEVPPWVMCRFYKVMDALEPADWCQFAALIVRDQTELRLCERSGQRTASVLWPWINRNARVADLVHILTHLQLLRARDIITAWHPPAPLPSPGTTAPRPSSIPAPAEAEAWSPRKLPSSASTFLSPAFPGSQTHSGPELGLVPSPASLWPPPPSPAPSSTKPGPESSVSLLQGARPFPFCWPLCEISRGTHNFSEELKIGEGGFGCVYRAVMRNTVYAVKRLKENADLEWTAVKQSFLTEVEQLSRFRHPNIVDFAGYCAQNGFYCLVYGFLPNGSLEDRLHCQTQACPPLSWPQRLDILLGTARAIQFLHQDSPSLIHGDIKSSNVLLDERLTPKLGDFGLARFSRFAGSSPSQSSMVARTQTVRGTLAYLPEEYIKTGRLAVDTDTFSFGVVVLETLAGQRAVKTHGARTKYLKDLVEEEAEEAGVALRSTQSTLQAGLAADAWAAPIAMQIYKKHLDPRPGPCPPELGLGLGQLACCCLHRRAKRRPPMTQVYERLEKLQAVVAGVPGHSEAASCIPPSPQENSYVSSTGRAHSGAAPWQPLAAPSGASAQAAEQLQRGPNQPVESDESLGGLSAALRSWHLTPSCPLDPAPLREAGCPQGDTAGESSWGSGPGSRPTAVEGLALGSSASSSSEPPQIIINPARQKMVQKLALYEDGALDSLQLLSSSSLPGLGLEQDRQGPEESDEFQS", "assay": "Inhibition of IRAK1 at 10 uM"}, "[24]": {"biological_target": "Dual specificity mitogen-activated protein kinase kinase 2 (Homo sapiens) (UniProt P36507)", "assay": "Inhibition of MAP2K2 at 10 uM"}, "[25]": {"biological_target": "Dual specificity mitogen-activated protein kinase kinase 5 (Homo sapiens) (UniProt Q13163)", "assay": "Inhibition of MAP2K5 at 10 uM"}, "[26]": {"biological_target": "Mitogen-activated protein kinase kinase kinase kinase 2 (Homo sapiens) (UniProt Q12851)", "assay": "Inhibition of MAP4K2 at 10 uM"}, "[27]": {"biological_target": "Proto-oncogene serine/threonine-protein kinase mos (Homo sapiens) (UniProt P00540)", "assay": "Inhibition of MOS at 10 uM"}, "[28]": {"biological_target": "Ribosomal protein S6 kinase alpha-5 (Homo sapiens) (UniProt O75582)", "assay": "Inhibition of MSK1 N-terminal at 10 uM"}, "[29]": {"biological_target": "Ribosomal protein S6 kinase alpha-4 (Homo sapiens) (UniProt O75676)", "assay": "Inhibition of MSK2 N-terminal at 10 uM"}, "[30]": {"biological_target": "Serine/threonine-protein kinase Nek1 (Homo sapiens) (UniProt Q96PY6)", "assay": "Inhibition of NEK1 at 10 uM"}, "[31]": {"biological_target": "Serine/threonine-protein kinase Nek7 (Homo sapiens) (UniProt Q8TDX7)", "assay": "Inhibition of NEK7 at 10 uM"}, "[32]": {"biological_target": "Mitogen-activated protein kinase 14 (Homo sapiens) (UniProt Q16539)", "sequence (Q16539 whole entry)": "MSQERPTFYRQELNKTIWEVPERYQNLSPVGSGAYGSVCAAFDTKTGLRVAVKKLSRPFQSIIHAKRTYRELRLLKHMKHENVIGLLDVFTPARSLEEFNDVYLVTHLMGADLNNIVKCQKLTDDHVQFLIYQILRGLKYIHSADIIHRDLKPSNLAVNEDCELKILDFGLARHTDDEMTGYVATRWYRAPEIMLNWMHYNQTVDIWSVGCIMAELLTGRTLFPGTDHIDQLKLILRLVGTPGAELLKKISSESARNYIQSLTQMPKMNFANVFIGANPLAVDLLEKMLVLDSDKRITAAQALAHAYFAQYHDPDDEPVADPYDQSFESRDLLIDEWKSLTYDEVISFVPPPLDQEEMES", "assay": "Inhibition of p38alpha at 10 uM"}, "[33]": {"assay": "Inhibition of p70S6K at 10 uM"}, "[34]": {"biological_target": "Serine/threonine-protein kinase PAK 1 (Homo sapiens) (UniProt Q13153)", "sequence (Q13153 whole entry)": "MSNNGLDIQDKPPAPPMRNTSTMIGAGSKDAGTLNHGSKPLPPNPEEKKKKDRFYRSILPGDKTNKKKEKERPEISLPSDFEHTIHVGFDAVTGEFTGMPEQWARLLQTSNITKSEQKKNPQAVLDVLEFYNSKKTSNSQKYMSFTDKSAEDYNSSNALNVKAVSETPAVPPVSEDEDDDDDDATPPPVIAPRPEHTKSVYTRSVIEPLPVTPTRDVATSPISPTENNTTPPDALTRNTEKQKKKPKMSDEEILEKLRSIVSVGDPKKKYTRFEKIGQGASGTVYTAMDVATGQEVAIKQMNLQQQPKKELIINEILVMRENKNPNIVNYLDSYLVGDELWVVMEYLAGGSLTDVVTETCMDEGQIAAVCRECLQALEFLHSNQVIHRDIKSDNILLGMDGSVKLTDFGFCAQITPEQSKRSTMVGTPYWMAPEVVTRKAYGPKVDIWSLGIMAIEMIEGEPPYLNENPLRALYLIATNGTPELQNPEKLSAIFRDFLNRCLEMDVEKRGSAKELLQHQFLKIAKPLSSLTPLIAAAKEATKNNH", "assay": "Inhibition of PAK1 at 10 uM"}, "[35]": {"biological_target": "Protein kinase C beta type (Homo sapiens) (UniProt P05771)", "assay": "Inhibition of PKCbeta1 at 10 uM"}, "[36]": {"biological_target": "RAF proto-oncogene serine/threonine-protein kinase (Homo sapiens) (UniProt P04049)", "assay": "Inhibition of RAF1 at 10 uM"}, "[37]": {"biological_target": "Serine/threonine-protein kinase Sgk2 (Homo sapiens) (UniProt Q9HBY8)", "assay": "Inhibition of SGK2 at 10 uM"}, "[38]": {"biological_target": "Myosin light chain kinase 2, skeletal/cardiac muscle (Homo sapiens) (UniProt Q9H1R3)", "assay": "Inhibition of skMLCK at 10 uM"}, "[39]": {"biological_target": "Serine/threonine-protein kinase WNK1 (Homo sapiens) (UniProt Q9H4A3)", "assay": "Inhibition of WNK1 at 10 uM"}, "[40]": {"biological_target": "Sphingosine kinase 2 (Homo sapiens) (UniProt Q9NRA0)", "assay": "Inhibition of SPHK2 at 10 uM"}, "[41]": {"biological_target": "Dual specificity tyrosine-phosphorylation-regulated kinase 1A (Homo sapiens) (UniProt Q13627)", "details": "10 uM"}}, "data": [{"smiles": "COc1ccc2c3ccnc(C(F)(F)F)c3n(CCCCN)c2c1", "values": [{"measurement": "inhibition", "setting": "[1]", "result": 0, "unit": "%"}, {"measurement": "inhibition", "setting": "[2]", "result": 34, "unit": "%"}, {"measurement": "inhibition", "setting": "[3]", "result": 3, "unit": "%"}, {"measurement": "inhibition", "setting": "[4]", "result": 0, "unit": "%"}, {"measurement": "inhibition", "setting": "[5]", "result": 8, "unit": "%"}, {"measurement": "inhibition", "setting": "[6]", "result": 6, "unit": "%"}, {"measurement": "inhibition", "setting": "[7]", "result": 0, "unit": "%"}, {"measurement": "inhibition", "setting": "[8]", "result": 0, "unit": "%"}, {"measurement": "inhibition", "setting": "[9]", "result": 11, "unit": "%"}, {"measurement": "inhibition", "setting": "[10]", "result": 6, "unit": "%"}, {"measurement": "inhibition", "setting": "[11]", "result": 0, "unit": "%"}, {"measurement": "inhibition", "setting": "[12]", "result": 49, "unit": "%"}, {"measurement": "inhibition", "setting": "[13]", "result": 2, "unit": "%"}, {"measurement": "inhibition", "setting": "[14]", "result": 0, "unit": "%"}, {"measurement": "inhibition", "setting": "[15]", "result": 16, "unit": "%"}, {"measurement": "inhibition", "setting": "[16]", "result": 0, "unit": "%"}, {"measurement": "inhibition", "setting": "[17]", "result": 35, "unit": "%"}, {"measurement": "inhibition", "setting": "[18]", "result": 93, "unit": "%"}, {"measurement": "inhibition", "setting": "[19]", "result": 27, "unit": "%"}, {"measurement": "inhibition", "setting": "[20]", "result": 73, "unit": "%"}, {"measurement": "inhibition", "setting": "[21]", "result": 62, "unit": "%"}, {"measurement": "inhibition", "setting": "[22]", "result": 53, "unit": "%"}, {"measurement": "inhibition", "setting": "[23]", "result": 53, "unit": "%"}, {"measurement": "inhibition", "setting": "[24]", "result": 6, "unit": "%"}, {"measurement": "inhibition", "setting": "[25]", "result": 1, "unit": "%"}, {"measurement": "inhibition", "setting": "[26]", "result": 75, "unit": "%"}, {"measurement": "inhibition", "setting": "[27]", "result": 16, "unit": "%"}, {"measurement": "inhibition", "setting": "[28]", "result": 36, "unit": "%"}, {"measurement": "inhibition", "setting": "[29]", "result": 16, "unit": "%"}, {"measurement": "inhibition", "setting": "[30]", "result": 5, "unit": "%"}, {"measurement": "inhibition", "setting": "[31]", "result": 0, "unit": "%"}, {"measurement": "inhibition", "setting": "[32]", "result": 1, "unit": "%"}, {"measurement": "inhibition", "setting": "[33]", "result": 76, "unit": "%"}, {"measurement": "inhibition", "setting": "[34]", "result": 3, "unit": "%"}, {"measurement": "inhibition", "setting": "[35]", "result": 35, "unit": "%"}, {"measurement": "inhibition", "setting": "[36]", "result": 0, "unit": "%"}, {"measurement": "inhibition", "setting": "[37]", "result": 20, "unit": "%"}, {"measurement": "inhibition", "setting": "[38]", "result": 34, "unit": "%"}, {"measurement": "inhibition", "setting": "[39]", "result": 5, "unit": "%"}, {"measurement": "inhibition", "setting": "[40]", "result": 6, "unit": "%"}, {"measurement": "inhibition", "setting": "[41]", "result": 100, "unit": "%"}]}]}
